{"source": "patent US20220186188A1", "about": "“Method for Obtaining Pancreatic Progenitor Cells and Pancreatic Islet Beta Cells By Means of Differentiation of Human Pluripotent Stem Cells” (Asia Regenerative Medicine, Ltd., priority 2019, published 2022)", "key": {"[1]": {"system": "pancreatic progenitor cells differentiated from human induced pluripotent stem cells", "assay": "Flow cytometry detection of PDX1 in the pancreatic progenitor cell stage (human induced pluripotent stem cells)", "type": "cell-based", "conditions": "2 μM inhibitor in pancreatic progenitor cell medium, 5 days, compared with control group without WNT inhibitor", "protocol": "a pancreatic progenitor cell medium was prepared, the medium in step 1) was replaced with the pancreatic progenitor cell medium, and the cells were cultured in a carbon dioxide incubator at 37 degrees Celsius for 5 days, during which the medium was replaced every day, wherein the composition of the pancreatic progenitor cell medium was: with an MCDB131 medium as a basic medium, and the following components at the working concentrations were further included: 0.5% of bovine serum albumin (BSA), 1.5 g/L of sodium bicarbonate, 1×glutamine (GlutaMAX), 10 mM glucose, […] vitamin C, 1×insulin-transferrin-selenium-ethanolamine additive (ITS-X), 50 ng/ml of fibroblast growth factor (KGF), 0.5 μM SANT1 (with smo as an inhibitor target), 100 nM retinoic acid (TTNPB), 500 nM phorbol 12,13-dibutyrate (PDBu), 2 μM ALK inhibitor (K02288), and 2 μM WNT signaling pathway inhibitor XAV-939 (not added in a control group), with the concentrations all being final concentrations. […]"}, "[2]": {"system": "pancreatic progenitor cells and pancreatic islet β cells differentiated from human induced pluripotent stem cells", "assay": "Immunofluorescence detection of PDX1 and PDX1/INS proteins (human induced pluripotent stem cells)", "type": "cell-based", "source_text": "[…]"}, "[3]": {"conditions": "2 μM inhibitor in pancreatic progenitor cell stage"}}, "data": [{"smiles": "Oc1nc(-c2ccc(C(F)(F)F)cc2)nc2c1CSCC2", "note": "[XAV-939]", "values": [{"measurement": "PDX1-positive pancreatic progenitor cells (flow cytometry)", "setting": "[1]", "result": "significantly increased"}, {"measurement": "number of insulin INS-positive and PDX1-co-stained pancreatic islet β cells in the mature pancreatic islet β cell stage", "setting": "[2]; 2 μM inhibitor added in pancreatic progenitor cell stage, immunofluorescence", "result": "significantly increased"}, {"measurement": "PDX1-positive pancreatic progenitor cells (immunofluorescence)", "setting": "[2]; [3]", "result": "significantly increased"}, {"measurement": "cell growth (total cell number by DAPI)", "setting": "[2]; [3]", "result": "did not affect the cell growth"}]}]}
